These results are taken from article PMC4176091, “Novel expression of Haemonchus contortus vaccine candidate aminopeptidase H11 using the free-living nematode Caenorhabditis elegans” (Veterinary Research, 2013).

Experiment in all cases: aminopeptidase assay, absorbance at […] nm
What all share (type): biochemical
Holding throughout (details): 0.5 mM substrate; 50 mM NaPO4, pH 5.5 and 7; 2 h at 37 °C then overnight at room temperature

The target of one assay is T1, H11 (rH11, isoform H11) (Haemonchus contortus, UniProt Q10737).
T1 construct: soluble, expressed in C. elegans; N-terminal transmembrane domain (35 aa) replaced by Hmcp-6 signal peptide; C-terminal 10 aa His tag; cobalt resin

Another assay has as its target T2, rH11-5 (Haemonchus contortus, UniProt V5K5H8).
T2 construct: soluble, expressed in C. elegans; N-terminal transmembrane domain (35 aa) replaced by Hmcp-6 signal peptide; C-terminal 10 aa His tag; cobalt resin

A further assay has as its target T3, rH11-1 (Haemonchus contortus, UniProt Q9U5P6).
T3 construct: gene h11-1; soluble, expressed in C. elegans; N-terminal transmembrane domain (35 aa) replaced by Hmcp-6 signal peptide; C-terminal 10 aa His tag; cobalt resin

A further assay has as its target T4, rH11-4 (Haemonchus contortus, UniProt Q967C6).
T4 construct: gene h11-4; soluble, expressed in C. elegans; N-terminal transmembrane domain (35 aa) replaced by Hmcp-6 signal peptide; C-terminal 10 aa His tag; N-glycosylated; cobalt resin

Structures are written as SMILES.

T4 sequence (Q967C6 entry or part of it): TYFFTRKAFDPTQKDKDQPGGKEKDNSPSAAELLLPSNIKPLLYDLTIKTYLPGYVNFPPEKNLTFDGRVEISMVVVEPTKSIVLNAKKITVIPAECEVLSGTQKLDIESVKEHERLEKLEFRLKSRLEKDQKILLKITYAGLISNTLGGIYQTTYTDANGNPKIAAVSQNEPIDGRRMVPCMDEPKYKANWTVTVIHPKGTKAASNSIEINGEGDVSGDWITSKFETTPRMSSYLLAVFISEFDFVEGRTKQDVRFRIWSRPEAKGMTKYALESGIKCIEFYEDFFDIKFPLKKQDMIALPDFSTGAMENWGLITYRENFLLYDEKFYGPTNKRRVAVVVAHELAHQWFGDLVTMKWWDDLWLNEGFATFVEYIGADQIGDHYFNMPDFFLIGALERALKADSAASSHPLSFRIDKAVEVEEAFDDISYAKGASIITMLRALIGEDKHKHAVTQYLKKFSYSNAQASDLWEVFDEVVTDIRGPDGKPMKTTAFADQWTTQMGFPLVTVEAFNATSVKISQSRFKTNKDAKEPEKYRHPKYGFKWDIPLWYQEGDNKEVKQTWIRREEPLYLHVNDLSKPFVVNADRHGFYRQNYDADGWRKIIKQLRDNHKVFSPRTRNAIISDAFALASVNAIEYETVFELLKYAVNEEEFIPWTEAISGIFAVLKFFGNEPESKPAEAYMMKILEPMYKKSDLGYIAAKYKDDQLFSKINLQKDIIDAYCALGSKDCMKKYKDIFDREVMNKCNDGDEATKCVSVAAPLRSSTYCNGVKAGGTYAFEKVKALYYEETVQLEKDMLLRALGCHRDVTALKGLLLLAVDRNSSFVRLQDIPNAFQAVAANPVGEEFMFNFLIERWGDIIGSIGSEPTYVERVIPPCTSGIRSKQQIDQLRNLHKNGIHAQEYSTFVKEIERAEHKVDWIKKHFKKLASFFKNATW
T1 sequence (Q10737 36-972): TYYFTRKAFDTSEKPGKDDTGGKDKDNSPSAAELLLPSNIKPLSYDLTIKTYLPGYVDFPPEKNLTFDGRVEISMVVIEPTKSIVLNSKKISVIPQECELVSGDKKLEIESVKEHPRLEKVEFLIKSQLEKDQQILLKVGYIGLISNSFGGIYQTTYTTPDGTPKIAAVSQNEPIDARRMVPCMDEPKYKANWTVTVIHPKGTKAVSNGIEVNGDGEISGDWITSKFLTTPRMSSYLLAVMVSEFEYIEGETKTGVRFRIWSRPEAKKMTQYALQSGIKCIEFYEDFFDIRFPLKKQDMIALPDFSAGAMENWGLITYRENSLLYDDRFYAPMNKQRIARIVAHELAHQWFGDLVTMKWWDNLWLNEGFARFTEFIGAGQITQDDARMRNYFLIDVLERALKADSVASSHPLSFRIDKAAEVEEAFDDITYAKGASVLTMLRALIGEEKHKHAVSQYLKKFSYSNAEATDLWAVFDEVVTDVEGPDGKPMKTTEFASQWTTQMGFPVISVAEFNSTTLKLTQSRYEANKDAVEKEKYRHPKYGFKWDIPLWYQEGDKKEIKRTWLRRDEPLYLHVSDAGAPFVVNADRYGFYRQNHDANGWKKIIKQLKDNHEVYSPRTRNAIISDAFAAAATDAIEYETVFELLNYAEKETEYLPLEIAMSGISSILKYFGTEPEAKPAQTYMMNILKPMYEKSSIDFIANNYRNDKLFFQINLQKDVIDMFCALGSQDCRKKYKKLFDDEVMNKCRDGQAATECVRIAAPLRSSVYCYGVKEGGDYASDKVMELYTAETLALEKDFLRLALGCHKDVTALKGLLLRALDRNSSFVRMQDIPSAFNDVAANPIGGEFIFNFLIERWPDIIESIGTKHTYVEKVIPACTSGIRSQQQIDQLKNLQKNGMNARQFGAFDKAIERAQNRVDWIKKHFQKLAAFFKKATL
T2 sequence (V5K5H8 entry or part of it): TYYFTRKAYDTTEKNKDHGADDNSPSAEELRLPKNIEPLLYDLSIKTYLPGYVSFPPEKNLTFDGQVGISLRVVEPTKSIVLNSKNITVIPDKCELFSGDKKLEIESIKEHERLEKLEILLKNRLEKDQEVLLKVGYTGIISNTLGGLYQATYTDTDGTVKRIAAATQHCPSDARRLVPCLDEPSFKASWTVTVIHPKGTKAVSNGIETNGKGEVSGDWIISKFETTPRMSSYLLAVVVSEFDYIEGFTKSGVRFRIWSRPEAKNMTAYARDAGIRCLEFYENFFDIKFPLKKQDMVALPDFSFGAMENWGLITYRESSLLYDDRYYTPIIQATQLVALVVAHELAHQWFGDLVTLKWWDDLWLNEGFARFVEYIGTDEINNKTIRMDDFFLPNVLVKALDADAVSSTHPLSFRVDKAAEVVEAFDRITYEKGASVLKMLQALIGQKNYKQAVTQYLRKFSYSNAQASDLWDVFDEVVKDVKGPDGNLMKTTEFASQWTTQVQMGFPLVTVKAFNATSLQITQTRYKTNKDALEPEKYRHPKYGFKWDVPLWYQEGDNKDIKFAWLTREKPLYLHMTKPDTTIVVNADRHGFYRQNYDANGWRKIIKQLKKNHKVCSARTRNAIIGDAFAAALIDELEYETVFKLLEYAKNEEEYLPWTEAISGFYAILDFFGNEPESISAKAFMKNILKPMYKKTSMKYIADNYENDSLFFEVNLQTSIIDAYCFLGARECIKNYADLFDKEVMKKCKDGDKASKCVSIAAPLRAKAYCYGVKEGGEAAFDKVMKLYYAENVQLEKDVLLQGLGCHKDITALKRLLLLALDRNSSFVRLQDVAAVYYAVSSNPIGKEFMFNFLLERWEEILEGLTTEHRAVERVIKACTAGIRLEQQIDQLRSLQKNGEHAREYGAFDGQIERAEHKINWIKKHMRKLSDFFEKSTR
T3 sequence (Q9U5P6 entry or part of it): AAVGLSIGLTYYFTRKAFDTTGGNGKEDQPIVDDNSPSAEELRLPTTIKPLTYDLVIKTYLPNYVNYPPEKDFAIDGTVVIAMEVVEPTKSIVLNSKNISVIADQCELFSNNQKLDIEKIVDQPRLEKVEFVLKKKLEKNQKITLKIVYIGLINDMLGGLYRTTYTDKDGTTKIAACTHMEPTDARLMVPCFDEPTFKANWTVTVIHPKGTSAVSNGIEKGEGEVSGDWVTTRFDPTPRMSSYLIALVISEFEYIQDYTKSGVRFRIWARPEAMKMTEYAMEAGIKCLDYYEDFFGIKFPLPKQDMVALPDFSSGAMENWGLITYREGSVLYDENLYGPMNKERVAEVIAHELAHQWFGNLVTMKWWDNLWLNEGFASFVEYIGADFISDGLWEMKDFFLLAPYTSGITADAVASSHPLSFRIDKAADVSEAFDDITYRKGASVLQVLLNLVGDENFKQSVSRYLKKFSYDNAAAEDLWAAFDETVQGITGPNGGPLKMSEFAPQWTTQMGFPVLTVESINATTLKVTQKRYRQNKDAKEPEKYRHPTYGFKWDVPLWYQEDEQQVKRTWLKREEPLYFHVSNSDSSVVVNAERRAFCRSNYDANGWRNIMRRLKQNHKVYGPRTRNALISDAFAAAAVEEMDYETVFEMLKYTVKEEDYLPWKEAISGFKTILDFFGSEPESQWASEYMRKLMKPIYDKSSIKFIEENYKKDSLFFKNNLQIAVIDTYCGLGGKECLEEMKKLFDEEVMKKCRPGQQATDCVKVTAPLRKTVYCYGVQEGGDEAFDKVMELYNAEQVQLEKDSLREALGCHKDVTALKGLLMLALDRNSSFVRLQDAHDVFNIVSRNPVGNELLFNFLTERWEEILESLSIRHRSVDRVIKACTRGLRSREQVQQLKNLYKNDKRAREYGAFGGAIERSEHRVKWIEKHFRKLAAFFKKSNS

As to `CC(C)C[C@H](N)C(=O)Nc1ccc([N+](=O)[O-])cc1` [L-leucine p-nitroanilide], the “aminopeptidase assay, absorbance at 405 nm” value is “rH11-4 and rH11-5 showing greater activity than H11 and H11-1 isoforms” at H11 (rH11, isoform H11); “rH11-4 and rH11-5 showing greater activity than H11 and H11-1 isoforms” on rH11-5; “rH11-4 and rH11-5 showing greater activity than H11 and H11-1 isoforms” at rH11-1; “rH11-4 and rH11-5 showing greater activity than H11 and H11-1 isoforms” on rH11-4.
